Assay results as given in PMC6099706, “Anti-Mycobacterium tuberculosis Activity of Esters of Quinoxaline 1,4-Di-N-Oxide” (Molecules : A Journal of Synthetic Chemistry and Natural …, 2018).
Values after ≈ are worked out from the molar mass of the structure shown.

Legend:
Test in all cases: microbe, parasite or virus in culture
Assay type in all cases: cell-based
Settings in all cases: Mycobacterium tuberculosis
[1] = tested on: M. tb H37Rv RR (rifampicin resistant)
[2] = tested on: M. tb H37Rv ER (ethambutol resistant)
[3] = tested on: M. tb H37Rv SR (streptomycin resistant)
[4] = tested on: M. tb H37Rv IR (isoniazid resistant)

Compound	MIC [1]	MIC [2]	MIC [3]	MIC [4]
CCCOC(=O)c1ccc2c(c1)[n+]([O-])c(C(=O)OC)c(C)[n+]2[O-] [Compound T-088]	< 0.31 µg/mL	< 0.31 µg/mL	0.625 µg/mL (≈ 1.95 µM)	0.62 µg/mL (≈ 1.94 µM)
CC(C)OC(=O)c1ccc2c(c1)[n+]([O-])c(C(=O)c1cccs1)c(C(F)(F)F)[n+]2[O-] [Compound T-069]	1.25 µg/mL (≈ 2.93 µM)	1.25 µg/mL (≈ 2.93 µM)	1.25 µg/mL (≈ 2.93 µM)	0.62 µg/mL (≈ 1.45 µM)
CCCOC(=O)c1ccc2c(c1)[n+]([O-])c(C(=O)c1cccs1)c(C(F)(F)F)[n+]2[O-] [Compound T-089]	1.25 µg/mL (≈ 2.93 µM)	0.625 µg/mL (≈ 1.47 µM)	1.25 µg/mL (≈ 2.93 µM)	< 0.31 µg/mL
CCOC(=O)c1ccc2c(c1)[n+]([O-])c(C(=O)c1cccs1)c(C(F)(F)F)[n+]2[O-] [Compound T-011]	< 0.31 µg/mL	< 0.31 µg/mL	0.625 µg/mL (≈ 1.52 µM)	< 0.31 µg/mL
COC(=O)c1ccc2c(c1)[n+]([O-])c(C(=O)OC)c(C)[n+]2[O-] [Compound T-022]	< 0.31 µg/mL	0.62 µg/mL (≈ 2.12 µM)	0.625 µg/mL (≈ 2.14 µM)	0.62 µg/mL (≈ 2.12 µM)
COC(=O)c1ccc2c(c1)[n+]([O-])c(C(=O)c1ccccc1)c(C(F)(F)F)[n+]2[O-] [Compound T-018]	0.625 µg/mL (≈ 1.59 µM)	0.62 µg/mL (≈ 1.58 µM)	1.25 µg/mL (≈ 3.19 µM)	0.62 µg/mL (≈ 1.58 µM)
CC(C)OC(=O)c1ccc2c(c1)[n+]([O-])c(C(=O)C(C)C)c(C(F)(F)F)[n+]2[O-] [Compound T-085]	0.625 µg/mL (≈ 1.62 µM)	< 0.31 µg/mL	1.25 µg/mL (≈ 3.24 µM)	< 0.31 µg/mL
CCOC(=O)c1ccc2c(c1)[n+]([O-])c(C(C)=O)c(C(F)(F)F)[n+]2[O-] [Compound T-006]	1.25 µg/mL (≈ 3.63 µM)	1.25 µg/mL (≈ 3.63 µM)	5 µg/mL (≈ 14.5 µM)	1.25 µg/mL (≈ 3.63 µM)
CO[C@H]1/C=C/O[C@@]2(C)Oc3c(C)c(O)c4c(O)c(c(/C=N/N5CCN(C)CC5)c(O)c4c3C2=O)NC(=O)/C(C)=C\C=C\[C@H](C)[C@H](O)[C@@H](C)[C@@H](O)[C@@H](C)[C@H](OC(C)=O)[C@@H]1C [RMP, rifampicin, reference compound]	> 2 µg/mL	< 0.06 µg/mL	< 0.06 µg/mL	< 0.06 µg/mL
